The experiment addresses T1, Pex1/Pex6_WB (Pex1-Strep2/His-Pex6(E832Q)) heterohexamer (Saccharomyces cerevisiae, UniProt P24004+P33760, P33760:E832Q).
T1 construct: full-length Pex1 with C-terminal Strep2 tag and Pex6(E832Q, D2 Walker B) with N-terminal His tag, co-expressed in S. cerevisiae MH 272/3f alpha; heterohexamer of alternating Pex1 and Pex6 (trimer of dimers); endogenous peptide trapped in D2 pore
T1 sequence (P24004 1-1043): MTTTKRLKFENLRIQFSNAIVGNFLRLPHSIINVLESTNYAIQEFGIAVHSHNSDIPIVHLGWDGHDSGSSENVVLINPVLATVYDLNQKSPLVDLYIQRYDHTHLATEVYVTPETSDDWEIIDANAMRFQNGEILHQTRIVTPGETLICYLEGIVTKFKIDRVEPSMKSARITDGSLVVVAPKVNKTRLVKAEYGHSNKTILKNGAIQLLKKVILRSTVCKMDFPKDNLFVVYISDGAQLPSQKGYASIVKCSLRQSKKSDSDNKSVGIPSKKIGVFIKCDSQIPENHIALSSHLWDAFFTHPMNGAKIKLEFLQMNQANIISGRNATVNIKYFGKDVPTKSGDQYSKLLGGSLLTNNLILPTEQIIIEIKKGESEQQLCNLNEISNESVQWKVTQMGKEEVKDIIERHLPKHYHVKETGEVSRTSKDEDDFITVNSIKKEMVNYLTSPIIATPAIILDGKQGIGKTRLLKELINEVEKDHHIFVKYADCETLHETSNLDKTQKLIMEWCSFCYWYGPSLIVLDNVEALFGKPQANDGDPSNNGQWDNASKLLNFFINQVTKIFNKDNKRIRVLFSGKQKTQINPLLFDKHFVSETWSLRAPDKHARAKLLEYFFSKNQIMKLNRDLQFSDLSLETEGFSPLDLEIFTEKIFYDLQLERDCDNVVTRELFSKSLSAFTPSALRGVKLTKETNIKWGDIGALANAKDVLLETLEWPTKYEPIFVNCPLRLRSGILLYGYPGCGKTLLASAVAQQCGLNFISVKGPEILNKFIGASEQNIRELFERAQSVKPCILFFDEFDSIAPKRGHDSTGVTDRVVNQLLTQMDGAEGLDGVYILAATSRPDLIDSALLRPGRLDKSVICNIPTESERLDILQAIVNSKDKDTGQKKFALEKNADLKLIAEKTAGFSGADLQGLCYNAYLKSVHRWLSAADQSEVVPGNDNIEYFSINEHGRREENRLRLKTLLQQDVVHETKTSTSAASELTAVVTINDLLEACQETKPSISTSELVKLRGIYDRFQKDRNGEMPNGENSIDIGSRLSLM
T1 sequence (P33760 1-1030 E832Q): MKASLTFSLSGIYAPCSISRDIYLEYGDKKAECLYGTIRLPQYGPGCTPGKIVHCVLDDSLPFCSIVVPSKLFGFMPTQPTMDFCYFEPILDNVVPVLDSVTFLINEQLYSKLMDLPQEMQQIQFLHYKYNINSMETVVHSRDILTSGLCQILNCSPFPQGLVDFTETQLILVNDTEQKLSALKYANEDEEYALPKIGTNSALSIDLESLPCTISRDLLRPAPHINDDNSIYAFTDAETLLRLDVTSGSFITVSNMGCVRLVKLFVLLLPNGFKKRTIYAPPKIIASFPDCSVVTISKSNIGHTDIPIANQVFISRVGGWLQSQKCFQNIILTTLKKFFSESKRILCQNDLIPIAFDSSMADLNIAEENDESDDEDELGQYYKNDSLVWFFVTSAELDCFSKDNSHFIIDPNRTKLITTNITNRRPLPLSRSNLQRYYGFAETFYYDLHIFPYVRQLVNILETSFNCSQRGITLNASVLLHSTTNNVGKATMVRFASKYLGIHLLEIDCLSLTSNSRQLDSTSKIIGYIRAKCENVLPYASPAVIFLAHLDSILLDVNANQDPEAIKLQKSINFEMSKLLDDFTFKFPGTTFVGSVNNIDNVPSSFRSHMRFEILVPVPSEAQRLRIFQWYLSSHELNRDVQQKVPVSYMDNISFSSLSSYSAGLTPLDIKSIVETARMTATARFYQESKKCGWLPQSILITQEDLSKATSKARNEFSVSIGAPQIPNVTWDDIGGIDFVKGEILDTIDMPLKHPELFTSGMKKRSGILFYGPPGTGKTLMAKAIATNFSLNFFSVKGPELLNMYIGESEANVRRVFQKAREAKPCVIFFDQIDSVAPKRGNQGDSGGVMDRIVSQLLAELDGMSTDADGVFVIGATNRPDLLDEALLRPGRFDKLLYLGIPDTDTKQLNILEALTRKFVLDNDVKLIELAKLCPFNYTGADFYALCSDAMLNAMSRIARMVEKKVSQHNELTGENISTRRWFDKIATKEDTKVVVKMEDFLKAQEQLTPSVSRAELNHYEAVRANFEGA
Kind of experiment: cryo-EM structure. The experiment is classed as binding.

On to `Nc1ncnc2c1ncn2[C@@H]1O[C@H](COP(=O)(O)OP(=O)(O)O)[C@@H](O)[C@H]1O` [ADP], for which the cryo-EM structure result (D2 sites of bottom and seam subunits, nucleotide assigned from density and pocket opening, not with absolute confidence, no ADP added (ATP in purification)) is given as “D2 domains are indeed in an ADP-bound state”. Consider `Nc1ncnc2c1ncn2[C@@H]1O[C@H](COP(=O)(O)OP(=O)(O)OP(=O)(O)O)[C@@H](O)[C@H]1O` [ATP], for which the cryo-EM structure entry (Mg2+, 1-3 mM ATP in purification, bound at all six D1 sites (not hydrolysed) and at D2 sites of the substrate-engaged subunits, single-seam 8C0V and twin-seam 8C0W) is listed as “all ATPase domains of the D1 ring are bound to ATP”.

These data come from article PMC10518020, “Structure of the peroxisomal Pex1/Pex6 ATPase complex bound to a substrate” (Nature Communications, 2023).
